This assay addresses Cbl-b (36-427 aa truncated form, N-terminus Avi-tag) (Homo sapiens (Human), UniProt Q13191). Kind of assay: Cbl-b binding: TR-FRET displacement of BODIPY-FL probe. On the procedure:
Compounds were assessed for binding activity to Cbl-b by their ability to compete with and displace a probe comprised of BODIPY-FL fluorophore conjugated to a Cbl-b inhibitor (see Example 54 in WO2020264398). In the assay, a 36-427 aa truncated form of Cbl-b with an N-terminus Avi-tag was incubated 20 mM HEPES pH 7.5, 150 mM NaCl, 0.01% Triton X-100, 0.1% BSA, 0.5 mM TCEP buffer with streptavidin-terbium (Cisbio). After one hour of incubation at room temperature, 1 uM each of fluorescent probe and compound were combined with the reaction mixture. Compounds with Cbl-b binding activity competitively displace the fluorophore tagged inhibitor thereby disrupting the FRET signal from the terbium-BODIPY-FL complex. The reaction mixtures were incubated for one additional hour at room temperature to allow for competition between inhibitor and candidate compounds to occur. The time resolved FRET (TR-FRET) signal was then read at 520/620 […] (excitation/emission) using a Spectramax M5e plate reader (Molecular Devices) to measure probe displacement. Compounds with Cbl-b binding activity had decreased FRET signal owing to disruption of the terbium-BODIPY-FL FRET complex. Standard methods in PRISM were used to calculate the compound IC50 values from the experimental data.

The results in this text go back to patent publication US20250304563A1, “ACTIVATORS OF EFFECTOR T CELLS” (Orum Therapeutics, Inc., priority 2022, published 2025).

Sequence of Cbl-b (36-427 aa truncated form, N-terminus Avi-tag) (Q13191 36-427): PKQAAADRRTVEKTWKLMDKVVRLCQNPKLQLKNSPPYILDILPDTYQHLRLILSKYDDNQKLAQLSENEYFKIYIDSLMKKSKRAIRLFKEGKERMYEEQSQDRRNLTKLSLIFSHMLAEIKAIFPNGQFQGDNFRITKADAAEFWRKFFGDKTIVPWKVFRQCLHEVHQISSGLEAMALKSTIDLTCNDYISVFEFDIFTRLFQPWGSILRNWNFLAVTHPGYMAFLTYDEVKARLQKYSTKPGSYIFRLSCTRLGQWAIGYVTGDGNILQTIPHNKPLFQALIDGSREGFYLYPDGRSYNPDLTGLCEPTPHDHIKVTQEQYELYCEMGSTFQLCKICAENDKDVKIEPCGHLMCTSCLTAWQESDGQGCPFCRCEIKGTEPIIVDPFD

`CCNc1cc([C@]2(c3nncn3C)C[C@H](C)C2)nc(N2Cc3c(cc(CN4CCC[C@H](C)C4)cc3C(F)(F)F)C2=O)n1` [Compound 114B, 2-[4-(ethylamino)-6-[(1r,3S)-3-methyl-1-(4-methyl-1,2,4-triazol-3-yl)cyclobutyl]pyrimidin-2-yl]-6-{[(3S)-3-methylpiperidin-1-yl]methyl}-4-(trifluoromethyl)-3H-isoindol-1-one] yielded an IC50 of 0.1 to 1 µM.
For the compound `C#CCN1CCN(c2cc(C3(Cc4nncn4C)COC3)cc(N3Cc4c(cc(CN5CCC[C@H](C)C5)cc4C(F)(F)F)C3=O)n2)CC1` [Compound 127, (S)-2-(4-(3-((4-methyl-4H-1,2,4-triazol-3-yl)methyl)oxetan-3-yl)-6-(4-(prop-2-yn-1-yl)piperazin-1-yl)pyridin-2-yl)-6-((3-methylpiperidin-1-yl)methyl)-4-(trifluoromethyl)isoindolin-1-one], the concentration for half-maximal inhibition (IC50) is 0.02 to 0.1 µM.
The value for `C[C@H]1CCCN(Cc2cc3c(c(C(F)(F)F)c2)CN(c2cc(C4(Cc5nncn5C)COC4)cc(N4CCN(CC#N)CC4)n2)C3=O)C1` [Compound 128, (S)-2-(4-(4-(3-((4-methyl-4H-1,2,4-triazol-3-yl)methyl)oxetan-3-yl)-6-(6-((3-methylpiperidin-1-yl)methyl)-1-oxo-4-(trifluoromethyl)isoindolin-2-yl)pyridin-2-yl)piperazin-1-yl)acetonitrile] was 0.02 to 0.1 µM; that for `Cc1cn(CCNc2cc(C3(Cc4nncn4C)COC3)cc(N3Cc4c(cc(CN5CCC[C@H](C)C5)cc4C(F)(F)F)C3=O)n2)nn1` [Compound 129, (S)-2-(6-((2-(4-methyl-1H-1,2,3-triazol-1-yl)ethyl)amino)-4-(3-((4-methyl-4H-1,2,4-triazol-3-yl)methyl)oxetan-3-yl)pyridin-2-yl)-6-((3-methylpiperidin-1-yl)methyl)-4-(trifluoromethyl)isoindolin-1-one] was 0.02 to 0.1 µM.
On to `C[C@H]1CCCN(Cc2cc3c(c(C(F)(F)F)c2)CN(c2cc(C4(Cc5nncn5C)COC4)cc(N4CCN(C(=O)Cc5nnn[nH]5)CC4)n2)C3=O)C1` [Compound 131, (S)-2-(6-(4-(2-(1H-tetrazol-5-yl)acetyl)piperazin-1-yl)-4-(3-((4-methyl-4H-1,2,4-triazol-3-yl)methyl)oxetan-3-yl)pyridin-2-yl)-6-((3-methylpiperidin-1-yl)methyl)-4-(trifluoromethyl)isoindolin-1-one], for which the IC50 lay within 0.02 to 0.1 µM.
`C[C@H]1CCCN(Cc2cc3c(c(C(F)(F)F)c2)CN(c2cc(C4(Cc5nncn5C)COC4)cc(N4CCN(C(=O)CN=[N+]=[N-])CC4)n2)C3=O)C1` [Compound 132, (S)-2-(6-(4-(2-azidoacetyl)piperazin-1-yl)-4-(3-((4-methyl-4H-1,2,4-triazol-3-yl)methyl)oxetan-3-yl)pyridin-2-yl)-6-((3-methylpiperidin-1-yl)methyl)-4-(trifluoromethyl)isoindolin-1-one] had a concentration for half-maximal inhibition (IC50) of 0.02 to 0.1 µM.
In turn, `C=CCS(=O)(=O)N1CCN(c2cc(C3(Cc4nncn4C)COC3)cc(N3Cc4c(cc(CN5CCC[C@H](C)C5)cc4C(F)(F)F)C3=O)n2)CC1` [Compound 133, (S)-2-(6-(4-(allylsulfonyl)piperazin-1-yl)-4-(3-((4-methyl-4H-1,2,4-triazol-3-yl)methyl)oxetan-3-yl)pyridin-2-yl)-6-((3-methylpiperidin-1-yl)methyl)-4-(trifluoromethyl)isoindolin-1-one] showed an IC50 of 0.00501 to 0.02 µM.
The value for `C[C@H]1CCCN(Cc2cc3c(c(C(F)(F)F)c2)CN(c2cc(C4(Cc5nncn5C)COC4)cc(N4CCNCC4)n2)C3=O)C1` [Compound 140, (S)-2-(4-(3-((4-methyl-4H-1,2,4-triazol-3-yl)methyl)oxetan-3-yl)-6-(piperazin-1-yl)pyridin-2-yl)-6-((3-methylpiperidin-1-yl)methyl)-4-(trifluoromethyl)isoindolin-1-one; trifluoro acetic acid] was 0.00501 to 0.02 µM.
As to `C[C@H]1CCCN(Cc2cc3c(c(C(F)(F)F)c2)CN(c2cc(C4(Cc5nncn5C)COC4)cc(NCCCC#N)n2)C3=O)C1` [Compound 143, 4-[(4-{3-[(4-methyl-1,2,4-triazol-3-yl)methyl]oxetan-3-yl}-6-(6-{[(3S)-3-methylpiperidin-1-yl]methyl}-1-oxo-4-(trifluoromethyl)-3H-isoindol-2-yl)pyridin-2-yl)amino]butanenitrile; trifluoroacetic acid], the 50% inhibitory concentration (IC50) was 0.001 to 0.005 µM.
The value for `CCSc1cc(C2(Cc3nncn3C)COC2)cc(N2Cc3c(C#N)cc(CN4CCC[C@H](C)C4)cc3C2=O)n1` [Compound 144, 2-[6-(ethylsulfanyl)-4-{3-[(4-methyl-1,2,4-triazol-3-yl)methyl]oxetan-3-yl}pyridin-2-yl]-6-{[(3S)-3-methylpiperidin-1-yl]methyl}-1-oxo-3H-isoindole-4-carbonitrile; trifluoroacetic acid] was 0.00501 to 0.02 µM; that for `CCSc1cc(C2(Cc3nncn3C)COC2)cc(N2Cc3c(C(N)=O)cc(CN4CCC[C@H](C)C4)cc3C2=O)n1` [Compound 145, 2-[6-(ethylsulfanyl)-4-{3-[(4-methyl-1,2,4-triazol-3-yl)methyl]oxetan-3-yl}pyridin-2-yl]-6-{[(3S)-3-methylpiperidin-1-yl]methyl}-1-oxo-3H-isoindole-4-carboxamide] was 0.00501 to 0.02 µM.
The value for `CCNc1cc(C2(Cc3nncn3C)COC2)cc(N2Cc3cc(CN4CCC[C@H](C)C4)sc3C2=O)n1` [Compound 149, 5-[6-(ethylamino)-4-{3-[(4-methyl-1,2,4-triazol-3-yl)methyl]oxetan-3-yl}pyridin-2-yl]-2-{[(3S)-3-methylpiperidin-1-yl]methyl}-4H-thieno[2,3-c]pyrrol-6-one] was 0.02 to 0.1 µM.
With `C#CCOCC(c1cc2c(c(C(F)(F)F)c1)CN(c1cccc(C3(c4nncn4C)CC(C)C3)c1)C2=O)N1CCC[C@H](C)C1` (stereo partly drawn) [Compound 151, 6-{1-[(3S)-3-methylpiperidin-1-yl]-2-(prop-2-yn-1-yloxy)ethyl}-2-{3-[(1r,3s)-3-methyl-1-(4-methyl-1,2,4-triazol-3-yl)cyclobutyl]phenyl}-4-(trifluoromethyl)-3H-isoindol-1-one] the figure was 0.1 to 1 µM.
`Cn1cnnc1CC1(c2cc(NCCC#N)nc(N3Cc4c(cc(CN5CCC(O)(C6CC6)CC5)cc4C(F)(F)F)C3=O)c2)COC1` [Compound 155, 3-[(6-{6-[(4-cyclopropyl-4-hydroxypiperidin-1-yl)methyl]-1-oxo-4-(trifluoromethyl)-3H-isoindol-2-yl}-4-{3-[(4-methyl-1,2,4-triazol-3-yl)methyl]oxetan-3-yl}pyridin-2-yl)amino]propanenitrile] showed an IC50 of 0.001 to 0.005 µM.
The value for `C[C@H](Cc1nncn1C)c1cccc(NC(=O)c2ccc(C=O)c(C3CC3)n2)c1` [Compound 156, 6-cyclopropyl-5-formyl-N-{3-[(2R)-1-(4-methyl-1,2,4-triazol-3-yl)propan-2-yl]phenyl}pyridine-2-carboxamide] was 0.02 to 0.1 µM; that for `Cn1cnnc1CC1(c2cc(NCCC#N)nc(N3Cc4c(cc(C=O)cc4C(F)(F)F)C3=O)c2)COC1` [Compound 157, 3-({6-[6-formyl-1-oxo-4-(trifluoromethyl)-3H-isoindol-2-yl]-4-{3-[(4-methyl-1,2,4-triazol-3-yl)methyl]oxetan-3-yl}pyridin-2-yl}amino)propanenitrile] was 0.02 to 0.1 µM; that for `CSc1cc(CN2CCC[C@H](C)C2)cc2c1CN(c1cc(C3(Cc4nncn4C)COC3)cc(NCCN=[N+]=[N-])n1)C2=O` [Compound 158, 2-{6-[(2-azidoethyl)amino]-4-{3-[(4-methyl-1,2,4-triazol-3-yl)methyl]oxetan-3-yl}pyridin-2-yl}-6-{[(3S)-3-methylpiperidin-1-yl]methyl}-4-(methylsulfanyl)-3H-isoindol-1-one; trifluoroacetic acid] was 0.001 to 0.005 µM.
With `CCSc1cc(C2(Cc3nncn3C)COC2)cc(N2Cc3c(C(C)=O)cc(CN4CCC[C@H](C)C4)cc3C2=O)n1` [Compound 159, 4-acetyl-2-[6-(ethylsulfanyl)-4-{3-[(4-methyl-1,2,4-triazol-3-yl)methyl]oxetan-3-yl}pyridin-2-yl]-6-{[(3S)-3-methylpiperidin-1-yl]methyl}-3H-isoindol-1-one; trifluoroacetic acid], the IC50 fell in the range of 0.02 to 0.1 µM.
`Cn1cnnc1CC1(c2cc(NCCC#N)nc(N3Cc4c(cc(CN5CCC6(CC5)CC6CO)cc4C(F)(F)F)C3=O)c2)COC1` (centres unmarked) [Compound 160, 3-{[6-(6-{[1-(hydroxymethyl)-6-azaspiro[2.5]octan-6-yl]methyl}-1-oxo-4-(trifluoromethyl)-3H-isoindol-2-yl)-4-{3-[(4-methyl-1,2,4-triazol-3-yl)methyl]oxetan-3-yl}pyridin-2-yl]amino}propanenitrile] yielded an IC50 of 0.001 to 0.005 µM.
For the compound `Cn1cnnc1CC1(c2cc(NCCC#N)nc(N3Cc4c(cc(CN5C[C@H]6CCC(O)C[C@H]6C5)cc4C(F)(F)F)C3=O)c2)COC1` (stereo partly drawn) [Compound 161, 3-{[6-(6-{[(3aR,7aS)-5-hydroxy-octahydroisoindol-2-yl]methyl}-1-oxo-4-(trifluoromethyl)-3H-isoindol-2-yl)-4-{3-[(4-methyl-1,2,4-triazol-3-yl)methyl]oxetan-3-yl}pyridin-2-yl]amino}propanenitrile; trifluoroacetic acid], the IC50 is 0.001 to 0.005 µM.
